The values below come from patent US5302604A, “Cholesterol lowering compounds produced by directed biosynthesis” (Merck & Co., Inc., priority 1992, dated 1994).

In this assay the target is T1, Squalene Synthetase (Rattus norvegicus, UniProt Q02769).
T1 construct: from tissue; host or cells: liver microsomes (100,000×g pellet) of male Charles River CD rats fed 0.1% lovastatin for 4 days
T1 sequence (Q02769 1-416): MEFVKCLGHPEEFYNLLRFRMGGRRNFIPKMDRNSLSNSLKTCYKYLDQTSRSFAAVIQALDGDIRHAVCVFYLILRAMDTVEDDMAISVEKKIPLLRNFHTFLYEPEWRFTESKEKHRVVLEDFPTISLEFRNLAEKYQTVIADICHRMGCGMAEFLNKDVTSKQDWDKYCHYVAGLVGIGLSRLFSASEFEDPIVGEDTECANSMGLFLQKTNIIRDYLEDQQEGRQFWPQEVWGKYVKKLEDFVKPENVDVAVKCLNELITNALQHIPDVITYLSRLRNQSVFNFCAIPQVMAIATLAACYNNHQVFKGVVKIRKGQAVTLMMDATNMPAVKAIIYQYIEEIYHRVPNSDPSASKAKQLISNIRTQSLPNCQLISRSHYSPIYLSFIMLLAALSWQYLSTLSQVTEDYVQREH
Nature of the assay: Squalene synthetase assay (in vitro inhibition, conversion of [4-^14 C]farnesyl-pyrophosphate). To be noted: rat liver microsomes, 30° C., 20 minutes. Type of assay: biochemical. The protocol:
The intrinsic squalene synthetase inhibitory activity of representative compounds of this invention was measured by the standard in vitro protocol described below:
PREPARATION OF RAT LIVER MICROSOMES
Male, Charles River CD rats (120 to 150 g) were fed a diet containing 0.1% lovastatin for 4 days. The livers from these rats were homogenized in 5 volumes (mL/g) of ice cold 50 mM HEPES (4-(2-hydroxyethyl)-1-piperazine-ethanesulfonic acid), 5 mM EDTA (ethylenediaminetetraacetic acid) pH 7.5 with a Potter-Elvehjem type tissue grinder. The homogenate was centrifuged twice at 20,000×g for 15 min. at 4° C., discarding the pellet each time. The supernatant was then centrifuged at 100,000×g for 1 hr at 4° C. The resulting microsomal pellet was resuspended in a volume of the above homogenizing buffer equal to one-fifth the volume of the original homogenate. This microsomal preparation has a protein concentration of about 7 mg/mL. The microsomal suspensions were stored in aliquots at -70° C. Squalene synthetase activity in these aliquots is stable for a least several months.
Partial Purification of Prenyl Transferase
Prenyl transferase was purified to use in the enzymatic synthesis of radiolabelled farnesyl pyrophosphate. […]
In general terms: Liver microsomes are a subcellular fraction often used to study metabolism.

One may read the IC50 as the concentration needed to halve the response being measured. Lower therefore signals higher potency. `C=C(CCC12OC(C(=O)O)C(O)(C(=O)O)C(C(=O)O)(O1)C(OC(=O)/C=C/C(C)CC(C)CC)C2O)C(OC(C)=O)C(C)Cc1ccsc1` (stereo not shown) showed an IC50 of 0.201 nM.
